According to patent US20140093457A1, “Compositions, methods and kits for remineralization and inhibition of dental caries in teeth” (President and Fellows of Harvard College, priority 2010, published 2014):
Values belong to the compound of their own block, whether it stands above or below them.

Experiments:
[1] = Detection probes on interproximal models of extracted human teeth; settings: for degree of detection: early stage caries lesion, optical observation; for emission wavelength (nm) / excitation/absorbance wavelength (nm): probe bound to interproximal enamel caries
Method: Interproximal models of extracted human teeth (molars and premolars) were fabricated using silicon impression materials. Interproximal enamel caries at about […] depth and at about 1.5 mm depth were prepared by using areas of interproximal contact regions. The dental preparations having synthetic caries were assessed by radiographic films (bitewings) and a microscope.
A cotton ball was saturated with the detection probe, and placed in contact with the region of the interproximal enamel caries. The bound probe was observed by illuminating over a varying set of different wavelengths of excitation light, followed by detecting light of fluorescent emissions. Furthermore, absorbance of the illuminating wavelengths was detected as appropriate for each probe.
Each tooth preparation having interproximal enamel caries and bound probe was illuminated and photographed.

[2] = Intensity and duration of fluorescence of probe dilutions bound to caries; settings: for fluorescent intensity compared to IR820 (ICG): dilutions 1:10 and 1:100 of 1 mg/mL stock, deep and shallow lesions
Method: Probes were tested for appropriate concentration, kinetics of binding and retention. Intensity of the illumination light, and the size of the illumination light beam were varied, and data were recorded for each probe. […] The concentration of each probe was varied to determine an optimum concentration for binding during a time period suitable for dental use. Durations of contacting were also tested, for example about 10 seconds, about 20 seconds, about 40 seconds, or about 60 seconds. Binding of the probes to the surface of a tooth having different occlusal cavity conditions were also determined, e.g., plaque, gingival, calculus.
See FIG. 10A and FIG. 10B, and FIG. 11A-FIG. 11D.

[3] = RFU comparison of solutions to release OsteoSense 750 from HA
Method: Variables included conditions of pH, temperature, and presence of 1% calcium chloride.
Three conditions were tested: incubation for 15 minutes at 37° C. after vortexing; adjusting pH to 6.5 at 23° C. after vortexing; and addition of 1% calcium chloride to each solution and incubation at room temperature after vortexing.

[4] = 1% solution with calcium chloride (1%), room temperature
[5] = 1% solution, 15 minutes at 37° C.
[6] = 1% solution, pH 6.5, room temperature
[7] = 5% solution with calcium chloride (1%), room temperature
[8] = 5% solution, 15 minutes at 37° C.
[9] = 5% solution, pH 6.5, room temperature
[10] = 10% solution with calcium chloride (1%), room temperature
[11] = 10% solution, 15 minutes at 37° C.
[12] = 10% solution, pH 6.5, room temperature
[13] = 20% solution with calcium chloride (1%), room temperature
[14] = 20% solution, 15 minutes at 37° C.
[15] = 20% solution, pH 6.5, room temperature

Compound: CC1(C)C(/C=C/C=C/C=C/C=C2\N(CCCCS(=O)(=O)[O-])c3ccc4ccccc4c3C2(C)C)=[N+](CCCCS(=O)(=O)[O-])c2ccc3ccccc3c21.[Na+] [CardioGreen (ICG)]
degree of detection [1]: Good
emission wavelength (nm) [1]: 820-870 nm
excitation/absorbance wavelength (nm) [1]: 750-800 nm
fluorescent intensity compared to IR820 (ICG) [2]: greater fluorescent intensity at each concentration and lesion depth compared to IR820 (ICG)

Compound: O=P([O-])([O-])O.[Na+].[Na+] [sodium phosphate dibasic (D), sodium phosphate dibasic]
% released of total OsteoSense [3, 4]: 0.01%
% released of total reference value [3, 4]: 0.02%
Raw RFU value [3, 4]: 0.00 RFU
% released of total OsteoSense [3, 5]: 2.97%
% released of total reference value [3, 5]: 2.30%
Raw RFU value [3, 5]: 1.11 RFU
% released of total OsteoSense [3, 6]: 1.81%
% released of total reference value [3, 6]: 2.08%
Raw RFU value [3, 6]: 0.68 RFU
% released of total OsteoSense [3, 7]: 4.67%
% released of total reference value [3, 7]: 4.11%
Raw RFU value [3, 7]: 1.75 RFU
% released of total OsteoSense [3, 8]: 14.21%
% released of total reference value [3, 8]: 13.12%
Raw RFU value [3, 8]: 5.33 RFU
% released of total OsteoSense [3, 9]: 14.64%
% released of total reference value [3, 9]: 14.63%
Raw RFU value [3, 9]: 5.49 RFU
% released of total OsteoSense [3, 10]: 4.90%
% released of total reference value [3, 10]: 5.28%
Raw RFU value [3, 10]: 1.84 RFU
% released of total OsteoSense [3, 11]: 27.90%
% released of total reference value [3, 11]: 31.69%
Raw RFU value [3, 11]: 10.46 RFU
% released of total OsteoSense [3, 12]: 25.75%
% released of total reference value [3, 12]: 21.10%
Raw RFU value [3, 12]: 9.66 RFU
% released of total OsteoSense [3, 13]: 14.02%
% released of total reference value [3, 13]: 29.08%
Raw RFU value [3, 13]: 5.26 RFU
% released of total OsteoSense [3, 14]: 35.48%
% released of total reference value [3, 14]: 27.01%
Raw RFU value [3, 14]: 13.30 RFU
% released of total OsteoSense [3, 15]: 56.19%
% released of total reference value [3, 15]: 55.57%
Raw RFU value [3, 15]: 21.07 RFU

The next lines start with results.

emission wavelength (nm) [1]: 845 nm
excitation/absorbance wavelength (nm) [1]: 745 nm
Compound: CC1(C)C(=CC=C2CCCC(C=CC3=[N+](CCCCS(=O)(=O)[O-])c4ccc5ccccc5c4C3(C)C)=C2Cl)N(CCCCS(=O)(=O)[O-])c2ccc3ccccc3c21.[Na+] [IR820 (ICG)]
degree of detection [1]: Good

emission wavelength (nm) [1]: 630 nm
excitation/absorbance wavelength (nm) [1]: 480 nm
Compound: COc1cccc2c1C(=O)c1c(O)c3c(c(O)c1C2=O)C[C@@](O)(C(=O)CO)C[C@@H]3O[C@H]1C[C@H](N)[C@H](O)[C@H](C)O1 [Doxorubicin]
degree of detection [1]: Good
optical observation of early stage caries lesion with bound probe (photograph) ([1]; tooth preparation illuminated and photographed): Fluorescence of an early stage caries lesion was observed

emission wavelength (nm) [1]: 760-800 nm
excitation/absorbance wavelength (nm) [1]: 700-770 nm
Compound: cyanine dye 7 [Cy7]
retained fluorescence intensity compared to CardioGreen (ICG) diluted 1:10 ([2]; diluted 1:10, deep and shallow lesions): much greater intensity in both deep and shallow lesions
fluorescent intensity compared to IR820 (ICG) [2]: greater fluorescent intensity at each concentration and lesion depth compared to IR820 (ICG)
